Measurements taken from PMC9298260, “An Immunomodulatory Peptide Dendrimer Inspired from Glatiramer Acetate” (Angewandte Chemie (International Ed. in English), 2021).

What was measured:
[1] = test system: IL-1Ra release from human primary monocytes; assay: IL-1Ra release from human primary monocytes, immunoassay (ELISA) of supernatants; type: cell-based; parameters: key: +: Ability to induce IL‐1Ra on primary monocytes after 48 h of incubation in the presence of 25–50 μg mL^−1 compound; Ability to induce IL‐1Ra on primary monocytes after 48 h of incubation in the presence of 25–50 μg mL^−1 compound; details: Table 1, 48 h, 25–50 μg mL^−1 compound
Method: As an activity screen we focused on interleukin‐1 receptor antagonist (IL‐1Ra), a cytokine released by circulating antigen presenting cells (APC) in response to GA.[15, 35] […] To test our dendrimers, we quantified by immunoassay the release of IL‐1Ra from human primary monocytes of healthy donors, an easily accessible type of APC, stimulated or not by addition of lipopolysaccharide (LPS), which in our hands provided a reliable read‐out.[15] We tested at defined weight/volume (25 and 50 μg mL^−1 compound as typically reported for GA)[15, 35] to account for a possible activity increase with MW as often observed with dendrimers when using molarity. In the initial screen the levels of secreted IL‐1Ra remained below 1 ng mL^−1 for all the smaller test compounds as well as with the linear peptide analogs of GA.
Figure 2 Cytokine level of IL‐1Ra in supernatants of primary human monocytes of healthy donors treated with peptide dendrimers, evaluated by ELISA (bars, left vertical axis) and mRNA levels (▴, right vertical axis). […] For mRNA levels evaluation, 2×10^6 cells 3 mL^−1 in 6 well plates were incubated with 50 μg mL^−1 dendrimer or GA for 18 h. […]
Enzyme-linked immunosorbent assay (ELISA)
Monocytes (5×10^4 cells/200 μL well; 96-well plates) were preincubated for 1 h with or without compounds in RPMI-1640 medium supplemented with 10% heat-inactivated FBS, 50 μg/mL streptomycin, 50 U/mL penicillin, 2 mM L-glutamine, and 5 μg/mL polymyxin B sulfate and then cultured for 48 h in the presence or absence of LPS (100 ng/mL) (2). The production of IL-1Ra was measured in culture supernatants by commercially available enzyme immunoassay according to manufacture protocol.
Figure S2. Cytokine level of IL-1Ra in supernatants of monocytes for active dendrimers and analogues evaluated by ELISA assay on primary human monocytes of healthy donors. 5×10^4 cells/200 µL in 96 well plates, were incubated with dendrimers or GA as a control for 48 h in presence or absence of LPS (100 ng/mL), in a range of concentrations (50-25 µg/mL) (mean ± SD, n = 2 different experiments). The results are present as the difference between each sample and the non-treated sample to take into account the difference between base line for each donor.
Figure S3. Cytokine level of IL-1Ra in supernatants of monocytes for active dendrimers and […]
presence or absence of LPS (100 ng/mL), in a range of concentrations (100-12.5 µg/mL) (mean ± SD, n = 3 different experiments). […]

[2] = Circular dichroism spectroscopy; type: physicochemical; details: 100 μg/mL, 8 mM phosphate buffer pH 7.2/7.4
Method: In terms of stereochemistry, activity was lost with D‐enantiomers D‐1 and D‐4, similar to the inactivity reported for D‐enantiomeric GA.[2]
Circular dichroism (CD) experiments were measured on a Jasco J-715 Spectropolarimeter. All the experiments were performed using Hellma Suprasil 110-QS 0.1 cm cuvettes. For each peptide, the measurements were performed in phosphate buffer (PB, pH=7.2, 8 mM) and in the presence of 5 mM dodecylphosphocholine. The concentration of the peptides was 100.0 μg/mL and each sample was measured using one accumulation. The scan rate was 10 nm/min, pitch 0.5 nm, response 16 sec and bandwidth 1.0 nm. The nitrogen flow was kept >8.5 L/min. After each measurement, the cuvettes were washed successively with 1 M HCl, milli-Q H2O and PB buffer. The baseline was recorded under the same conditions and subtracted manually.
Figure S12. Circular dichroism spectra of GA, 1 and 4 (100 μg/mL) in 8 mM phosphate buffer at pH 7.4 (a) or in presence of 5 mM dodecylphosphocholine. Percentage of α-helix and β- sheet was processed by Dichroweb using the CONTIN analysis program and reference set 3.
(1 picture or pasted object on this page, not shown here)

lymphocytes = assay: IL-1Ra in supernatants of lymphocytes (rest of leukocytes after Percoll), ELISA; type: cell-based, human; details: rest of leukocytes after Percoll gradient, 50-25 µg/mL, 48 h, n = 2
Method: Similar donor dependent responses of cytokine release to GA have been reported for IL‐27.[38]
Figure S3. Cytokine level of IL-1Ra in supernatants of monocytes for active dendrimers and analogues evaluated by ELISA assay on primary human monocytes of healthy donors. 5×10^4 cells/200 µL in 96 well plates, were incubated with dendrimers or GA as a control for 48 h in presence or absence of LPS (100 ng/mL), in a range of concentrations (100-12.5 µg/mL) (mean ± SD, n = 3 different experiments).
Figure S4. Cytokine level of IL-1Ra in supernatants of monocytes enriched fraction (a) and the rest of leukocytes (b) for active dendrimers and analogues evaluated by ELISA assay.
Monocytes fraction was separated from whole PBMC by Percoll density gradient centrifugation. 5×10^4 cells/200 µL in 96 well plates were incubated with dendrimers or GA (50-25 µg/mL) as a control for 48 h (mean ± SD, n = 2 different experiments). […]

[3] = cited from earlier work

conformation by CD spectra [2]: α‐helical
Substance: Glatiramer acetate [GA, reference compound]
Act. (ability to induce IL-1Ra) [1]: +
induction of IL-1Ra in lymphocytes (lymphocytes): did not occur
crossing of the BBB [3]: does not cross the BBB
